Measurements from ChEMBL document CHEMBL2440076, “New triarylpyrazoles as broad-spectrum anticancer agents: design, synthesis, and biological evaluation” (Eur J Med Chem, 2013).

Tests used:
U-251 = assay: Growth inhibition of human U251 cells assessed as cell growth at 10 uM after 48 hrs by sulforhodamine B assay; type: functional; details: U-251, 48 h, read-out: Activity
RPMI-8226 = assay: Growth inhibition of human RPMI8226 cells after 48 hrs by sulforhodamine B assay; type: functional, cell-based; details: RPMI-8226, 48 h
NCI-H322M [1] = assay: Growth inhibition of human NCI-H322M cells after 48 hrs by sulforhodamine B assay; type: functional
BT-549 [2] = assay: Growth inhibition of human BT549 cells assessed as cell growth at 10 uM after 48 hrs by sulforhodamine B assay; type: functional; details: BT-549, 48 h, read-out: Activity
DU-145 [3] = assay: Growth inhibition of human DU145 cells assessed as cell growth at 10 uM after 48 hrs by sulforhodamine B assay; type: functional; details: DU-145, 48 h, read-out: Activity
RXF 393 [4] = assay: Growth inhibition of human RXF393 cells after 48 hrs by sulforhodamine B assay; type: functional; details: RXF 393, 48 h
OVCAR-4 = assay: Growth inhibition of human OVCAR4 cells assessed as cell growth at 10 uM after 48 hrs by sulforhodamine B assay; type: functional; details: OVCAR-4, 48 h, read-out: Activity
DU-145 [5] = assay: Growth inhibition of human DU145 cells after 48 hrs by sulforhodamine B assay; type: functional; details: DU-145, 48 h
ACHN = assay: Growth inhibition of human ACHN cells assessed as cell growth at 10 uM after 48 hrs by sulforhodamine B assay; type: functional; details: read-out: Activity
CCRF-CEM [6] = assay: Growth inhibition of human CCRF-CEM cells after 48 hrs by sulforhodamine B assay; type: functional
[7] = Growth inhibition of human Hs 578T cells assessed as cell growth at 10 uM after 48 hrs by sulforhodamine B assay; type: functional; details: read-out: Activity
OVCAR-5 [8] = assay: Growth inhibition of human OVCAR5 cells assessed as cell growth at 10 uM after 48 hrs by sulforhodamine B assay; type: functional; details: OVCAR-5, 48 h, read-out: Activity
SN12C = assay: Growth inhibition of human SN12C cells assessed as cell growth at 10 uM after 48 hrs by sulforhodamine B assay; type: functional; details: read-out: Activity
SW-620 = assay: Growth inhibition of human SW620 cells after 48 hrs by sulforhodamine B assay; type: functional; details: SW-620, 48 h
A549 = assay: Growth inhibition of human A549/ATCC cells after 48 hrs by sulforhodamine B assay; type: functional; details: A549, 48 h
CCRF-CEM [9] = assay: Growth inhibition of human CCRF-CEM cells assessed as cell growth at 10 uM after 48 hrs by sulforhodamine B assay; type: functional; details: read-out: Activity
IGROV-1 [10] = assay: Growth inhibition of human IGROV1 cells assessed as cell growth at 10 uM after 48 hrs by sulforhodamine B assay; type: functional; details: IGROV-1, 48 h, read-out: Activity
KM12 = assay: Growth inhibition of human KM12 cells after 48 hrs by sulforhodamine B assay; type: functional, cell-based; details: KM12, 48 h
BT-549 [11] = assay: Growth inhibition of human BT549 cells after 48 hrs by sulforhodamine B assay; type: functional; details: BT-549, 48 h
K562 [12] = assay: Growth inhibition of human K562 cells after 48 hrs by sulforhodamine B assay; type: functional; details: K562, 48 h
IGROV-1 [13] = assay: Growth inhibition of human IGROV1 cells after 48 hrs by sulforhodamine B assay; type: functional; details: IGROV-1, 48 h
UO-31 = assay: Growth inhibition of human UO31 cells after 48 hrs by sulforhodamine B assay; type: functional; details: UO-31, 48 h
MCF7 [14] = assay: Growth inhibition of human MCF7 cells after 48 hrs by sulforhodamine B assay; type: functional; details: MCF7, 48 h
OVCAR-5 [15] = assay: Growth inhibition of human OVCAR5 cells after 48 hrs by sulforhodamine B assay; type: functional; details: OVCAR-5, 48 h
CAKI-1 = assay: Growth inhibition of human CAKI-1 cells assessed as cell growth at 10 uM after 48 hrs by sulforhodamine B assay; type: functional; details: CAKI-1, 48 h, read-out: Activity
NCI-H322M [16] = assay: Growth inhibition of human NCI-H322M cells assessed as cell growth at 10 uM after 48 hrs by sulforhodamine B assay; type: functional; details: read-out: Activity
K562 [17] = assay: Growth inhibition of human K562 cells assessed as cell growth at 10 uM after 48 hrs by sulforhodamine B assay; type: functional; details: K562, 48 h, read-out: Activity
UACC-62 = assay: Growth inhibition of human UACC62 cells assessed as cell growth at 10 uM after 48 hrs by sulforhodamine B assay; type: functional; details: UACC-62, 48 h, read-out: Activity
MCF7 [18] = assay: Growth inhibition of human MCF7 cells assessed as cell growth at 10 uM after 48 hrs by sulforhodamine B assay; type: functional; details: MCF7, 48 h, read-out: Activity
OVCAR-8 = assay: Growth inhibition of human OVCAR8 cells after 48 hrs by sulforhodamine B assay; type: functional; details: OVCAR-8, 48 h
RXF 393 [19] = assay: Growth inhibition of human RXF393 cells assessed as cell growth at 10 uM after 48 hrs by sulforhodamine B assay; type: functional; details: RXF 393, 48 h, read-out: Activity
NCI-H522 = assay: Growth inhibition of human NCI-H522 cells after 48 hrs by sulforhodamine B assay; type: functional; details: NCI-H522, 48 h
A498 = assay: Growth inhibition of human A498 cells after 48 hrs by sulforhodamine B assay; type: functional, cell-based; details: A498, 48 h
UACC-257 = assay: Growth inhibition of human UACC257 cells assessed as cell growth at 10 uM after 48 hrs by sulforhodamine B assay; type: functional; details: UACC-257, 48 h, read-out: Activity
NCI-H460 = assay: Growth inhibition of human NCI-H460 cells after 48 hrs by sulforhodamine B assay; type: functional; details: NCI-H460, 48 h
[20] = read-out: LC50 (the source's name)

COc1cc(-c2nn(-c3cccc(NC(=O)c4ccc(Cl)c(C(F)(F)F)c4)c3)cc2-c2ccncc2)ccc1Cl
growth at 10 µM (U-251): 32.5% | GI50 (RPMI-8226): 1.62 µM | IC50 (RPMI-8226): 1.62 µM | TGI (RPMI-8226): > 32.5 µM | CC50 (RPMI-8226; [20]): > 32.5 µM | GI50 (NCI-H322M [1]): 12.8 µM | TGI (NCI-H322M [1]): > 32.5 µM | CC50 (NCI-H322M [1]; [20]): > 32.5 µM | growth at 10 µM (BT-549 [2]): 49.7% | growth at 10 µM (DU-145 [3]): 65.4% | GI50 (RXF 393 [4]): 1.76 µM | LC50 (concentration killing 50% of cells) (RXF 393 [4]): > 32.5 µM | TGI (RXF 393 [4]): 18.7 µM | growth at 10 µM (OVCAR-4): 66% | GI50 (DU-145 [5]): 6.39 µM | LC50 (DU-145 [5]): > 32.5 µM | TGI (DU-145 [5]): > 32.5 µM | growth at 10 µM (ACHN): 39.1% | GI50 (CCRF-CEM [6]): 1.77 µM | LC50 (CCRF-CEM [6]): > 32.5 µM | TGI (CCRF-CEM [6]): > 32.5 µM | growth at 10 µM [7]: 34.7% | growth at 10 µM (OVCAR-5 [8]): 91.3% | growth at 10 µM (SN12C): 57.3% | GI50 (SW-620): 4.75 µM | TGI (SW-620): > 32.5 µM | CC50 (SW-620; [20]): > 32.5 µM | GI50 (A549): 2.4 µM | LC50 (concentration killing 50% of starting cells) (A549): > 32.5 µM | TGI (A549): > 32.5 µM | growth at 10 µM (CCRF-CEM [9]): 12.4% | growth at 10 µM (IGROV-1 [10]): 48.9% | GI50 (KM12): 2.06 µM | TGI (KM12): > 32.5 µM | CC50 (KM12; [20]): > 32.5 µM | GI50 (BT-549 [11]): 7.54 µM | LC50 (50% lethal concentration) (BT-549 [11]): > 32.5 µM | TGI (BT-549 [11]): > 32.5 µM | GI50 (K562 [12]): 1.61 µM | TGI (K562 [12]): > 32.5 µM | CC50 (K562 [12]; [20]): > 32.5 µM | GI50 (IGROV-1 [13]): 2.15 µM | LC50 (concentration killing 50% of cells) (IGROV-1 [13]): > 32.5 µM | TGI (IGROV-1 [13]): > 32.5 µM | GI50 (UO-31): 0.267 µM | TGI (UO-31): > 32.5 µM | CC50 (UO-31; [20]): > 32.5 µM | GI50 (MCF7 [14]): 2.24 µM | LC50 (MCF7 [14]): > 32.5 µM | TGI (MCF7 [14]): > 32.5 µM | GI50 (OVCAR-5 [15]): > 32.5 µM | LC50 (concentration killing 50% of cells) (OVCAR-5 [15]): > 32.5 µM | TGI (OVCAR-5 [15]): > 32.5 µM | growth at 10 µM (CAKI-1): 61.1% | growth at 10 µM (NCI-H322M [16]): 84.9% | growth at 10 µM (K562 [17]): 8.65% | growth at 10 µM (UACC-62): 32.8% | growth at 10 µM (MCF7 [18]): 37.6% | GI50 (OVCAR-8): 3.35 µM | TGI (OVCAR-8): > 32.5 µM | CC50 (OVCAR-8; [20]): > 32.5 µM | growth at 10 µM (RXF 393 [19]): -0.4% | GI50 (NCI-H522): 1.04 µM | LC50 (concentration killing 50% of cells) (NCI-H522): > 32.5 µM | TGI (NCI-H522): 13.4 µM | GI50 (A498): 2.7 µM | IC50 (A498): 2.7 µM | TGI (A498): 22.7 µM | CC50 (A498; [20]): > 32.5 µM | growth at 10 µM (UACC-257): 23.5% | GI50 (NCI-H460): 3.47 µM | LC50 (NCI-H460): > 32.5 µM | TGI (NCI-H460): > 32.5 µM
